The first assay concerns the target T1, human TRPV4 (hTRPV4/CHO cells) (Homo sapiens, UniProt Q9HBA0).
T1 construct: expressed in transfected cells; host or cells: CHO-K1
Description: Test Example 4: TRPV4 inhibitory activity (Ki value), 4α-PDD stimulation, Fluo-3 calcium fluorescence (FDSS 3000). Format: cell-based. The conditions noted are these: Test Example 4, 4α-PDD stimulation, read-out: Test 4 Ki. As for the experimental part: TRPV4 Inhibitory Activity (Ki Value)
For each compound, TRPV4 inhibitory activity was measured using cells.
(Method) The procedures of evaluating TRPV4 inhibitory activity of a compound are as follows.
(1) TRPV4 inhibitory activity was measured using CHO-K1 cells stably expressing human TRPV4 (hTRPV4/CHO cells).
(2) Cells were subcultured using the MEM-α medium (SIGMA M4526: 500 ml), FBS (HyCloneSH30070.03: 10%), L-Glutamine 200 mmol/L (GIBCO: 4 mmol/L), P/S (nacalai tesque: 1%), G418 (nacalai tesque: 1 mg/mL).
(3) The 96-well plates which hTRPV4/CHO cells were seeded at densities of 2×10^4 cells/well in the culture medium in the day before the experimental day, and cultured in a CO2 incubator in the presence of 5% CO2 at 37° C. for 24 hours was used as assay plates.
(4) Cells were washed with assay buffer (Hank's Balanced Salt Solution 9.8 g, 1 mol/L HEPES (pH7.5), 250 mmol/L probenecid).
(5) Fluo-3, fluorescent dye for Ca influx assay was added to each well, then the assay plate was incubated in a CO2 incubator in the presence of 5% CO2 at 37° C. for one hour (final conc.; 5 μmol/L Fluo-3).
(6) The assay plate was washed with the assay buffer, and the buffer was remained at 30 μL/well. Then the assay plate was incubated for 10 min at 37° C.
(7) 20 μL of diluted compound solution was added to each well of assay plate, and mixed with built-in Pipette and Mixer of the fluorescence analysis system FDSS 3000 (Hamamatsu Photonics).
(8) 50 μL of 4α-PDD solution (concluding 0.1% Pluronic F-127) was applied to each well of assay plate and mixed.
(9) The fluorescent intensity was measured by FDSS 3000 for 8 min from the point of time addition the compound solution, at Ex 480 nm, Em 540 nm wavelength.
TRPV4 inhibitory activity (Ki value) of a compound was calculated according to the following procedure.
(10) In the presence of the compound, the difference between maximal and minimal of fluorescent intensity value for 8 min from just before addition of 4α-PDD solution was calculated, and it was referred as Max-Min value. Max-Min value of the Ruthenium Red at 10 μM was defined as 100% inhibitory activity, Max-Min value in the absence of the compound was defined as 0% inhibitory activity. TRPV4 inhibitory activity of the compound was calculated by the following formula.
(1−(Max−Min value of the compound−100% inhibitory activity)/(0% inhibitory activity−100% inhibitory activity))×100
(11) By the following formula, inhibitory activity was calculated at 10 points with three fold serial dilution, in the final concentration of the compound from 10 μmol/L to 0.5 nmol/L. The IC50 value was calculated by dose-response curve.
100−[(fluorescent intensity in the presence of the compound−fluorescent intensity of back ground)/(total fluorescent intensity−fluorescent intensity of back ground)]×100
(12) In the presence of the compound, activity of 4α-PDD was measured at 9 points with three fold serial dilution from 20 μmol/L. Activity of 4α-PDD was calculated by the following formula.
(Max−Min value of the each 4α-PDD concentration−0% activity)/(100% activity−0% activity))×100
(13) Effective activity was calculated in 4α-PDD the above. The EC50 value was calculated by dose-response curve.
(14) The Ki value of a compound was calculated by the following formula.
Ki=IC50 value/1+([A]/EC50)
[A]: Concentration of agonist (nmol/L)
T1 sequence (Q9HBA0 whole entry): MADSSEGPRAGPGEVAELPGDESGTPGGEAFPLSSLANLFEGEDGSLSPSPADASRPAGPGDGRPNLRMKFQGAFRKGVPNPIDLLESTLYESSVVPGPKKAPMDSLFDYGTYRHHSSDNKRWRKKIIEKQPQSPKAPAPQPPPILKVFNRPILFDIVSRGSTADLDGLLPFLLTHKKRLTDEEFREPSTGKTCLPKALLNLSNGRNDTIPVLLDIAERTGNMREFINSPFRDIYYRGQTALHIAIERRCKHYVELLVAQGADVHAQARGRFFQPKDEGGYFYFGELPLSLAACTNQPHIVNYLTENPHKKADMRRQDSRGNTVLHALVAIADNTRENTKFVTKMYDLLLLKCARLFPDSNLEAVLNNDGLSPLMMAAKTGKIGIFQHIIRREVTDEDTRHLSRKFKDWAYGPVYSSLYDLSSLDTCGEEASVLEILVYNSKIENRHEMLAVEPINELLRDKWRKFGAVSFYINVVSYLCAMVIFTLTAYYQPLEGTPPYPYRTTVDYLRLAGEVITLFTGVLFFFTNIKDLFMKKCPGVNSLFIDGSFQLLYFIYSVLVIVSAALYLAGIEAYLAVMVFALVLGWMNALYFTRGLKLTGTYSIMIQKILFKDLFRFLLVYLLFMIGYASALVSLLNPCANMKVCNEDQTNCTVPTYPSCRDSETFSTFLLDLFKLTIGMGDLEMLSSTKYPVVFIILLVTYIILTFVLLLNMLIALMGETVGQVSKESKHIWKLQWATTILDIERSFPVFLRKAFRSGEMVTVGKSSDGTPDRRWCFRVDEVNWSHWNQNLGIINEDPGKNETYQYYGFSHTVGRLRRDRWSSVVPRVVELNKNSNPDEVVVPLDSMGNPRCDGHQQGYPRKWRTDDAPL
Turning to `Cc1nc(C)c(-c2csc(NC(=O)Nc3ccc(Br)cc3)n2)s1` [Compound I-233], the Ki is 1000 to 3000 nM.

On to `C=C(C)c1ncc(-c2csc(NC(=O)Cc3ccc(S(=O)(=O)C(F)(F)F)cc3)n2)s1` [Compound I-25], for which the Ki fell in the range of 100 to 1000 nM.

Regarding `CCCCCC(=O)Nc1nc(-c2sc(C)nc2C)cs1` [Compound I-222], the inhibition constant Ki was below 100 nM.

On to `Cc1nc(C)c(-c2csc(NC(=O)CC(C)(C)C)n2)s1` [Compound I-9], for which the Ki was in the range of 100 to 1000 nM.

On to `O=C(Cc1ccc(C(F)(F)F)cc1)Nc1nc(-c2sc(Cl)nc2Cl)cs1` [Compound I-15], for which the Ki was 100 to 1000 nM.

As to `Cc1nc(C)c(-c2csc(NC(=O)c3ccc(F)c(Cl)c3)n2)s1` [Compound I-10], the inhibition constant Ki lay in the range of 100 to 1000 nM.

As for `Cc1nc(C)c(-c2csc(NC(=O)COc3ccc(Cl)cc3)n2)s1` [Compound I-229], the inhibition constant Ki was below 100 nM.

Take `Cc1nc(C)c(-c2csc(NC(=O)C(F)c3ccccc3)n2)s1` (centres unmarked) [Compound I-8]: the Ki lay in the range of 100 to 1000 nM.

Turning to `Cc1nc(C)c(-c2csc(NC(=O)C3CCC(=O)C3)n2)s1` (racemic) [Compound I-37], the inhibitory constant (Ki) lay within 1000 to 3000 nM.

For the compound `Cc1nc(C)c(-c2csc(NC(=O)CC3CCC3)n2)s1` [Compound I-54], the inhibition constant (Ki) was below 100 nM.

On to `Cc1nc(C)c(-c2csc(NC(=O)Cc3ccc(Cl)cc3)n2)s1` [Compound I-230], for which the Ki is below 100 nM.

Take `Cc1nc(C)c(-c2csc(NC(=O)Cc3c(F)cccc3F)n2)o1` [Compound I-58]: the Ki was below 100 nM.

As for `Cc1nc(C)c(-c2csc(NC(=O)C3(C)CC3)n2)s1` [Compound I-28], the inhibition constant (Ki) lay within 100 to 1000 nM.

Consider `Cc1nc(C)c(-c2csc(NC(=O)[C@H]3CC[C@H](S(=O)(=O)CC(F)(F)F)C3)n2)s1` (racemic) [Compound I-57], for which the inhibitory constant (Ki) was 100 to 1000 nM.

Take `Cc1nc(C)c(-c2csc(NC(=O)C3(O)CC3)n2)s1` [Compound I-26]: the Ki is 100 to 1000 nM.

For `Cc1nc(C)c(-c2csc(Nc3ccc(Cl)cc3)n2)s1` [II-26], the Ki lay in the range of 100 to 1000 nM.

On to `Cc1nc(C)c(-c2csc(NC(=O)Cc3c[nH]c4ccccc34)n2)s1` [Compound I-44], for which the Ki was 100 to 1000 nM.

For `COc1ccc(Nc2nc(-c3sc(C)nc3C)cs2)cc1` [II-29], the Ki lay in the range of 100 to 1000 nM.

As to `CCCC(=O)Nc1nc(-c2sc(C)nc2C)cs1` [Compound I-219], the inhibition constant (Ki) fell in the range of 100 to 1000 nM.

For the compound `Cc1nc(C)c(-c2csc(NC(=O)CC#N)n2)s1` [Compound I-40], the Ki fell in the range of 100 to 1000 nM.

On to `Cc1nc(C)c(-c2csc(Nc3ccccc3)n2)s1` [II-30], for which the inhibition constant (Ki) lay in the range of 100 to 1000 nM.

With `CCCCCCCCCCCC(=O)Nc1nc(-c2sc(C)nc2C)cs1` [Compound I-220], the Ki was 100 to 1000 nM.

Consider `Cc1nc(C)c(-c2csc(NC(=O)C(C)Oc3ccc(Cl)cc3)n2)s1` (centres unmarked) [Compound I-12], for which the inhibitory constant (Ki) lay within 100 to 1000 nM.

Regarding `Cc1nc(C)c(-c2csc(NC(=O)CCS(=O)(=O)c3ccccc3)n2)s1` [Compound I-41], the Ki lay in the range of 100 to 1000 nM.

Take `Cc1nc(C)c(-c2csc(NC(=O)CC3CCS(=O)(=O)C3)n2)s1` (centres unmarked) [Compound I-51]: the Ki fell in the range of 1000 to 3000 nM.

As for `Cc1nc(C)c(-c2csc(NC(=O)[C@H]3CC[C@H](SCC(F)(F)F)C3)n2)s1` (racemic) [Compound I-536], the Ki was below 100 nM.

`CC(=O)c1ccc(Nc2nc(-c3sc(C)nc3C)cs2)cc1` [II-25]: the Ki fell in the range of 100 to 1000 nM.

For `Cc1nc(C)c(-c2csc(NC(=O)Cc3ccccn3)n2)s1` [Compound I-7], the Ki lay in the range of 100 to 1000 nM.

With `O=C(Cc1ccc(Br)cc1)Nc1nc(-c2cnc(Cl)s2)cs1` [Compound I-16], the Ki is 100 to 1000 nM.

As to `Cc1nc(C)c(-c2csc(NC(=O)c3ccc(Br)cc3)n2)s1` [Compound I-232], the inhibitory constant (Ki) lay in the range of 100 to 1000 nM.

Take `Cc1nc(C)c(-c2csc(NC(=O)Cc3ccc(Br)cc3)n2)o1` [Compound I-231]: the Ki lay in the range of 100 to 1000 nM.

`Cc1nc(C)c(-c2csc(NC(=O)C(C)(C)c3ccccc3)n2)s1` [Compound I-1]: the Ki lay within 100 to 1000 nM.

Turning to `Cc1nc(C)c(-c2csc(NC(=O)CC3CC3)n2)s1` [Compound I-33], the Ki lay within 100 to 1000 nM.

For the compound `Cc1nc(C)c(-c2csc(NC(=O)Cc3ccc(OC(F)(F)F)cc3)n2)s1` [Compound I-21], the Ki was below 100 nM.

For the compound `O=C(Nc1nc(-c2sc(Cl)nc2Cl)cs1)C1CCC(F)(F)C1` (centres unmarked) [Compound I-535], the Ki was 100 to 1000 nM.

Consider `Cc1nc(C)c(-c2csc(NC(=O)C(C)(C)Oc3ccc(Cl)cc3)n2)s1` [Compound I-11], for which the Ki lay within 100 to 1000 nM.

Turning to `COC(C(=O)Nc1nc(-c2sc(C)nc2C)cs1)c1ccccc1` (centres unmarked) [Compound I-5], the Ki fell in the range of 100 to 1000 nM.

As to `CCCCCCCC(=O)Nc1nc(-c2sc(C)nc2C)cs1` [Compound I-221], the Ki is below 100 nM.

Turning to `Cc1nc(C)c(-c2csc(Nc3ccc(F)cc3)n2)s1` [II-27], the inhibition constant (Ki) was 100 to 1000 nM.

For the compound `Cc1nc(C)c(-c2csc(NC(=O)Cc3ccc(SC(F)(F)F)cc3)n2)s1` [Compound I-22], the Ki was below 100 nM.

Regarding `Cc1nc(C)c(-c2csc(Nc3ccc(N(C)C)cc3)n2)s1` [II-28], the Ki lay in the range of 100 to 1000 nM.

In the case of `Cc1nc(C)c(-c2csc(NC(=O)C3CCCO3)n2)s1` (centres unmarked) [Compound I-6], the Ki was 1000 to 3000 nM.

As for `Cc1nc(C)c(-c2csc(NC(=O)[C@H]3CC[C@H](Cl)C3)n2)s1` (racemic) [Compound I-55], the Ki is below 100 nM.

As for `Cc1nc(C)c(-c2csc(NC(=O)CCc3ccccc3)n2)s1` [Compound I-228], the Ki fell in the range of 100 to 1000 nM.

With `Cc1nc(C)c(-c2csc(NC(=O)c3ccc(Cl)cc3)n2)s1` [Compound I-227], the inhibitory constant (Ki) was in the range of 100 to 1000 nM.

The target of the next assay is T1, human TRPV4 (hTRPV4/CHO cells). Briefly: Test Example 1: TRPV4 inhibitory activity (IC50 value), 4α-PDD stimulation, Fluo4 calcium fluorescence (FLIPR TETRA). Format: cell-based. The conditions noted are these: Test Example 1, 4α-PDD stimulation, read-out: Test 1 IC50.
For `Cc1nc(C)c(-c2csc(NC(=O)[C@H]3C[C@@H](c4ccccc4)CN3C(=O)OC(C)(C)C)n2)s1` [Compound I-243], the IC50 lay in the range of 100 to 1000 nM.

For `Cc1nc(CO)sc1-c1csc(NC(=O)[C@@H]2C[C@@H](c3ccccc3)CN2C(=O)OC(C)(C)C)n1` [Compound I-277], the IC50 was below 100 nM.

In the case of `Cc1nc(C)c(-c2csc(NC(=O)Cn3cc(Cn4cccc4)nn3)n2)s1` [Compound I-428], the IC50 was in the range of 100 to 1000 nM.

Regarding `Cc1nc(CO)sc1-c1csc(NC(=O)[C@H]2C[C@@H](NCc3ccc(C(F)(F)F)cc3)C2)n1` [Compound I-319], the concentration for half-maximal inhibition (IC50) lay in the range of 100 to 1000 nM.

`Cc1nc(C)c(-c2csc(NC(=O)c3cccc(-c4ccccc4)n3)n2)s1` [Compound I-296]: the 50% inhibitory concentration (IC50) fell in the range of 1000 to 8000 nM.

For `O=C(Nc1nc(-c2sc(CO)nc2CO)cs1)[C@H]1C[C@@H](OCc2ccccc2C(F)(F)F)C1` [Compound I-347], the IC50 lay within 100 to 1000 nM.

Consider `Cc1nc(CO)sc1-c1csc(NC(=O)OC(C)(C)C)n1` [Compound I-30], for which the IC50 lay in the range of 1000 to 8000 nM.

Consider `Cc1nc(CO)c(-c2csc(NC(=O)Cc3c(F)cccc3F)n2)s1` [Compound I-96], for which the half-maximal inhibitory concentration (IC50) lay within 100 to 1000 nM.

For `Cc1nc(C)c(-c2nc(NC(=O)Cc3c(F)cccc3F)sc2-c2cnn(C)c2)s1` [Compound I-62], the half-maximal inhibitory concentration (IC50) was in the range of 1000 to 8000 nM.

Consider `Cc1nc(C(C)O)sc1-c1csc(NC(=O)C2CCN(c3ccccc3)C2)n1` (centres unmarked) [Compound I-295], for which the IC50 lay in the range of 100 to 1000 nM.

Regarding `Cc1nc(C)c(-c2csc(NC(=O)[C@@H]3C[C@@H](c4ccccc4)CN3C(=O)OC(C)(C)C)n2)s1` [Compound I-210], the IC50 was below 100 nM.

Consider `Cc1nc(C(C)O)sc1-c1csc(NC(=O)[C@H]2C[C@@H](F)C2)n1` (mixture of isomers) [Compound I-299], for which the half-inhibitory concentration (IC50) was 1000 to 8000 nM.

In the case of `Cc1nc(CCO)sc1-c1csc(NC(=O)Cc2ccc(S(=O)(=O)C(F)(F)F)cc2)n1` [Compound I-437], the half-maximal inhibitory concentration (IC50) was below 100 nM.

Take `Cc1nc(C)c(-c2csc(NC(=O)C3Cc4ccccc4N3C(=O)C(F)(F)F)n2)s1` (centres unmarked) [Compound I-176]: the half-inhibitory concentration (IC50) was below 100 nM.
